The values below come from article PMC11672551, “Cyclic Ruthenium-Peptide Prodrugs Penetrate the Blood–Brain Barrier and Attack Glioblastoma upon Light Activation in Orthotopic Zebrafish Tumor Models” (ACS Central Science, 2024).

Where two headings read alike, the source gives them in different places.

Data set [1] concerns U87MG-wt and U87MG-kd (ITGAV, integrin αV knockdown) cells. The data set is described as follows: Cellular ruthenium uptake by ICP-MS in wild type vs ITGAV knockdown cells. The data set is classed as cell-based, human. To be noted: normoxia, 10 μM, 3 h, 2D monolayers, n = 3. Here is the method: Figure 2 Integrin targeting by Ru-p(HH), Ru-p(MH), and Ru-p(MM)in vitro. (a, b) Expression of integrin (a) αVβ3 and (b) αVβ5 in MCF7, PC-3, A549, MDA-MB-231, U87MG, and U87MG-kd cell lines under normoxic (21% O2) or hypoxic (1% O2) conditions. Note a: ITGAV was knockdown; see Methods. Bars represent the fluorescence intensity of the cells incubated with either anti-integrin αVβ3 or αVβ5 monoclonal antibodies followed by a secondary antibody conjugated to Alexa-Fluor 488. Error: standard deviation (SD), n = 2. (c) Ruthenium accumulation (μg Ru/million cells) of wild type U87MG (U87MG-wt) and ITGAV knockdown U87MG (U87MG-kd) cell lines after treatment with medium (control), Ru-p(HH), Ru-p(MH), Ru-p(MM), or [Ru(Ph2phen)2(bpy)]Cl2 (normoxia, 10 μM, 3 h). Error: standard deviation (SD), n = 3. Two-way ANOVA was used to determine the significance of the comparisons of data (*P < 0.05, **P < 0.01, ***P < 0.001, ****P < 0.0001).
In order to check whether the integrins […] were responsible for the cellular uptake of these conjugates, an ITGAV (integrin αV) knockdown U87MG cell line (U87MG-kd, Figure 2a,b) was prepared, and the cellular ruthenium uptake was measured using ICP-MS in wild type and knockdown U87MG 2D cell monolayers (Figure 2c). […]

The test system of data set [2] is U87MG cells. The experiment in a line: 2D cytotoxicity assay, SRB end point, dark vs green light. The following applies: normoxia (21% O2); for EC50: SRB at 96 h. The data set is classed as cell-based, human. Here is the method:
To test the in vitro phototoxicity of the three complexes toward 2D monolayer U87MG cells, a cell viability assay was undertaken as follows: the cells were seeded at t = 0, treated at t = 24 h, irradiated with green light (520 nm, 13.1 J cm^–2) at t = 48 h without refreshing the medium (drug-to-light interval = 24 h), further incubated in the dark for 48 h, and counted at t = 96 h with a sulforhodamine B (SRB) cell quantification end point assay.[45] Half-maximal effective concentrations (EC50 in μM), compared to untreated control, and photoindex (PI) values, defined as EC50,dark/ EC50,light, were calculated to characterize the toxicity and light activation of each Ru-peptide conjugate. […] However, a much stronger discrepancy appeared in the 2D toxicity data in hypoxic conditions (Table 2, Figure S22b). The phototherapeutic properties of Ru-p(HH) in the green light group were the poorest, leading to a PI of only 1.3. […] Ru-p(MH) stood somewhere between these values with a PI of 1.9 under hypoxia. […] The loss of activity of Ru-p(HH) under hypoxia is consistent with the hypothesis of a PDT pathway, while Ru-p(MM) keeping appreciable phototoxicity under hypoxia better fits the hypothesis of a PACT cell-killing mechanism.
U87MG cells (6000) were seeded in 96-well plates (Sarstedt, 83.3924), and each well contained 100 μL of Opti-MEM (Gibco complete medium 11058-021, supplemented with 2.5% v/v fetal calf serum (FCS), 0.2% v/v penicillin/streptomycin (P/S), and 1% v/v glutamine). They were then placed either in a normoxic (21% O2) or hypoxic (1.0% O2) incubator; 24 h later, different concentrations of Ru-p(HH), Ru-p(MH), or Ru-p(MM) dissolved in Opti-MEM (100 μL) were added to the wells in triplicate. For each complex, one dark and one light plate were involved. Each plate was further incubated in the dark for 24 h (DLI). After that, one plate was irradiated with green light (520 nm) for 20 min at 37 °C for normoxia (dose = 13.1 J cm^–2) or 30 min for hypoxia (dose = 13.0 J cm^–2), while the other plate was kept in the dark. The cells were further incubated for another 2 days in normoxic or hypoxic conditions, respectively. Finally, 100 μL of cold trichloroacetic acid (10% w/v) was added to each well to fix the cells, and all plates were then transferred to a 4 °C refrigerator for 48 h before an SRB cell quantification end point assay was performed.[45] All experiments were conducted in biologically independent triplicate.
Hypoxic cell models in vitro: all cells were incubated and passaged in a dark hypoxic incubator (1% O2) for at least 2 weeks before all hypoxia studies. Adding chemicals to the cells had to be performed in air; however, the cell-growing medium was kept in the hypoxia incubator for at least 2 days before the addition to hypoxic cells, and all hypoxic light irradiations were performed inside the hypoxic incubator set at 1.0% O2.

Regarding [Ru(Ph2phen)2(bpy)]Cl2, the “cellular ruthenium uptake in U87MG-kd compared to wild type U87MG” value in data set [1] is “not lowered”. Further, the “PI, photoindex EC50,dark/EC50,light” value in data set [2] is recorded as 74.4. Also, the half-maximal effective concentration (EC50) in data set [2] (520 nm, 10.9 mW cm–2, 13.1 J cm–2, 20 min, DLI 24 h, n = 3, read-out: EC50, green light) worked out at 0.18 µM; in data set [2] (light dose 0, 24 h treatment, no wash, n = 3, read-out: EC50, dark), 13.4 µM.

Usually EC50 stands for the concentration at which the effect is half-maximal.
